Test systems include SNB-75; SK-MEL-2; SNB-19; IGROV-1; COLO 205; 786-0; HCC 2998; CAKI-1; RPMI-8226; NCI-H226; PC-3; A549; ACHN; NCI/ADR-RES; OVCAR-3; OVCAR-4; MCF7; MOLT-4; RXF 393; A498.
What all share (experiment): growth of human tumour cells (NCI), 48 h

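Values below derive from 48-hour exposures of cells grown in 96-well plates, with endpoints linearly interpolated between the two concentrations bracketing the appropriate inhibition level. The concentration for 50% growth inhibition is given as GI50.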 Activity calls are given as the source filed them. No stated cut-off is given here; in the data, active = GI50 up to about 1.1 µM and inactive = higher.

For `OCCCCCCCCCCCOc1ccc(C2OCC3(CC=CCC3)CO2)cc1` (stereo unspecified), the GI50 in the assay on SNB-75 was 11.8 µM (inactive); in the assay on SK-MEL-2 it was 38.1 µM (inactive); with SNB-19, 19.9 µM (inactive); with IGROV-1 it was 16.1 µM (inactive); in the assay on COLO 205, 22 µM (inactive); in the assay with 786-0 it was 13.8 µM (inactive). Besides, the GI50 with HCC 2998 is 17.9 µM (inactive); in the assay on CAKI-1 it was 17.4 µM (inactive); in the assay with RPMI-8226, > 100 µM (inactive); with NCI-H226 it was 16.6 µM (inactive); in the assay with PC-3, 4.07 µM (inactive); in the assay with A549, 17.1 µM (inactive). For the same compound, the GI50 in the assay with ACHN was 17.5 µM (inactive); with NCI/ADR-RES it was 14.7 µM (inactive); in the assay with OVCAR-3, 19.1 µM (inactive); in the assay on OVCAR-4, 15.7 µM (inactive); in the assay with MCF7 it was 4.88 µM (inactive); with MOLT-4, 34.2 µM (inactive).

For the compound `O=C(CC(=O)N1N=C(N(c2ccccc2)c2ccccc2)CC1c1ccccc1)Nc1ccccc1` (stereo unspecified), the GI50 in the assay with SNB-75 was 61.4 µM (inactive); with SK-MEL-2 it was > 100 µM (inactive); in the assay on SNB-19, 78 µM (inactive); in the assay on IGROV-1 it was > 100 µM (inactive); with COLO 205, > 100 µM (inactive); with 786-0, 81.7 µM (inactive). The GI50 in the assay with HCC 2998, in the assay on CAKI-1, in the assay on RPMI-8226, in the assay with NCI-H226, with PC-3 and in the assay with A549 was > 100 µM (inactive) throughout. For the same compound, the GI50 in the assay on ACHN was > 100 µM (inactive); in the assay with NCI/ADR-RES it was > 100 µM (inactive); in the assay with OVCAR-3, > 100 µM (inactive); in the assay on OVCAR-4 it was > 100 µM (inactive); in the assay with MCF7, > 100 µM (inactive); in the assay with MOLT-4 it was 7.31 µM (inactive). In the assay on RXF 393, the GI50 is 49.8 µM (inactive).

`C=C[C@]1(C)CC[C@]2(C)C(CC[C@@]3(C)C2C[C@H](O)[C@H](O)[C@@]3(C)O)C1` (stereo partly specified): the GI50 with SNB-75, with SK-MEL-2, in the assay on SNB-19, in the assay with IGROV-1, in the assay on COLO 205 and in the assay with 786-0 was > 100 µM (inactive) each time. Further, the GI50 in the assay on HCC 2998, with CAKI-1, in the assay on RPMI-8226, with NCI-H226, with PC-3 and in the assay on A549 was > 100 µM (inactive) in each case. Moreover, the GI50 in the assay with ACHN, in the assay with NCI/ADR-RES, with OVCAR-3, in the assay with A498, in the assay with MCF7 and with MOLT-4 was > 100 µM (inactive) throughout.

As for `Cc1ccc(-c2nc(N/N=C/C=C/c3ccccc3)c3ccccc3n2)cc1`, the GI50 in the assay on SNB-75 is 33.6 µM (inactive); in the assay with SK-MEL-2, 24.9 µM (inactive); in the assay on SNB-19, 37.6 µM (inactive); in the assay on IGROV-1 it was 19.2 µM (inactive); in the assay on COLO 205 it was 57.3 µM (inactive); with 786-0 it was 30 µM (inactive). Besides, the GI50 in the assay on HCC 2998 is 28.4 µM (inactive); in the assay on CAKI-1 it was 38.8 µM (inactive); with RPMI-8226 it was > 100 µM (inactive); in the assay with NCI-H226, > 100 µM (inactive); in the assay on PC-3, 28.6 µM (inactive); with A549, 34.4 µM (inactive). Moreover, the GI50 with ACHN is 19.1 µM (inactive); in the assay with NCI/ADR-RES, 72.9 µM (inactive); in the assay on OVCAR-3, 31.6 µM (inactive); in the assay with OVCAR-4 it was 50.5 µM (inactive); in the assay with MCF7, 14 µM (inactive); with MOLT-4, > 100 µM (inactive). Further, in the assay on RXF 393, the GI50 was 26.2 µM (inactive).

As for `Cc1nn(C(=O)c2ccc(Cl)cc2)c2c1C(c1ccc([N+](=O)[O-])cc1)SC(=N)N2` (stereo unspecified), the GI50 in the assay on SNB-75, in the assay on SK-MEL-2, with SNB-19, in the assay with IGROV-1, with COLO 205 and with 786-0 was > 10 µM (inactive) in each case. Moreover, the GI50 in the assay with HCC 2998, in the assay on CAKI-1, in the assay on RPMI-8226, in the assay with NCI-H226, in the assay with PC-3 and in the assay with A549 was > 10 µM (inactive) each time. The GI50 with ACHN, in the assay on NCI/ADR-RES, in the assay with OVCAR-3, in the assay with OVCAR-4, in the assay on MCF7 and in the assay on MOLT-4 was > 10 µM (inactive) each time. Also, in the assay on RXF 393, the GI50 was > 10 µM (inactive).

Consider `CN(/N=C/c1ccnc2ccccc12)c1ccc(Cl)cc1[N+](=O)[O-]`, for which the GI50 in the assay on SNB-75 was 26.6 µM (inactive); in the assay with SK-MEL-2 it was > 100 µM (inactive); in the assay with SNB-19, > 100 µM (inactive); in the assay on IGROV-1 it was > 100 µM (inactive); in the assay on COLO 205 it was > 100 µM (inactive); in the assay on 786-0, 49.9 µM (inactive). The GI50 with HCC 2998, with CAKI-1, in the assay on NCI-H226, in the assay with PC-3, in the assay on A549 and in the assay on ACHN was > 100 µM (inactive) in each case. The GI50 with NCI/ADR-RES was > 100 µM (inactive); in the assay on OVCAR-3, 80.9 µM (inactive); in the assay on OVCAR-4, 4.92 µM (inactive); in the assay on A498, > 100 µM (inactive); with MCF7, 83.9 µM (inactive); in the assay on MOLT-4, 45.3 µM (inactive). In the assay on RXF 393, the GI50 was 37.3 µM (inactive).

Take `CO/N=C(\C(=O)Nc1cncs1)c1csc(N)n1`: the GI50 with SNB-75, with SNB-19, with IGROV-1, in the assay on COLO 205, in the assay on 786-0 and with HCC 2998 was > 10 µM (inactive) each time. In addition, the GI50 in the assay on CAKI-1 is > 10 µM (inactive); in the assay on RPMI-8226 it was 6.27 µM (inactive); in the assay on PC-3, > 10 µM (inactive); with A549, > 10 µM (inactive); in the assay with ACHN, > 10 µM (inactive); in the assay with NCI/ADR-RES, > 10 µM (inactive). Further, the GI50 in the assay with OVCAR-3, in the assay with OVCAR-4, in the assay on A498, in the assay on MCF7 and in the assay with MOLT-4 was > 10 µM (inactive) throughout.

Regarding `C/C(=N\NC(=S)Nc1ccc([N+](=O)[O-])cc1)c1nc2cccnc2[nH]1`, the GI50 in the assay with SNB-75 is 1.38 µM (inactive); in the assay on SK-MEL-2 it was 1.31 µM (inactive); with SNB-19, 0.824 µM (active); in the assay on IGROV-1, 0.942 µM (active); in the assay on COLO 205 it was 2.44 µM (inactive); with 786-0, 0.748 µM (active). Moreover, the GI50 is 1.15 µM (inactive) in the assay with HCC 2998; 1 µM (active) in the assay on CAKI-1; 1.87 µM (inactive) in the assay with RPMI-8226; 0.504 µM (active) with NCI-H226; 1.24 µM (inactive) in the assay with PC-3; 0.783 µM (active) in the assay on A549. In addition, the GI50 with ACHN is 0.378 µM (active); in the assay with NCI/ADR-RES, 1.13 µM (inactive); with OVCAR-3 it was 0.299 µM (active); in the assay with OVCAR-4, 0.583 µM (active); in the assay on A498, 2.67 µM (inactive); with MCF7, 0.611 µM (active). Besides, the GI50 in the assay with MOLT-4 is 0.377 µM (active).

With `CC(C)(C)OC(=O)N/C(C=O)=C\C1CCCCC1`, the GI50 with SNB-75 was 29.7 µM (inactive); with SK-MEL-2 it was 24.8 µM (inactive); with SNB-19, 25.1 µM (inactive); in the assay on IGROV-1, 20.7 µM (inactive); in the assay on COLO 205, 19.2 µM (inactive); with 786-0 it was 19.9 µM (inactive). In addition, the GI50 is 19.8 µM (inactive) in the assay with HCC 2998; 20.4 µM (inactive) in the assay with CAKI-1; 21.2 µM (inactive) with NCI-H226; 17.3 µM (inactive) with PC-3; > 100 µM (inactive) in the assay with A549; 29.3 µM (inactive) in the assay with ACHN. In addition, the GI50 with NCI/ADR-RES was 18.3 µM (inactive); with OVCAR-3, 24.1 µM (inactive); with OVCAR-4 it was 23.1 µM (inactive); in the assay on MCF7, 25.6 µM (inactive); with MOLT-4, 14.8 µM (inactive); in the assay with RXF 393, 23.4 µM (inactive).

With `CC(=O)c1ccc(/N=N/N2CCCC2)cc1`, the GI50 in the assay with SNB-75, in the assay on SK-MEL-2, with SNB-19, with IGROV-1, in the assay with COLO 205 and in the assay on 786-0 was > 100 µM (inactive) in each case. In addition, the GI50 in the assay on HCC 2998, in the assay on CAKI-1, in the assay on NCI-H226, in the assay with PC-3, in the assay on ACHN and in the assay with NCI/ADR-RES was > 100 µM (inactive) each time. Besides, the GI50 was > 100 µM (inactive) with OVCAR-3; > 100 µM (inactive) with OVCAR-4; 15.9 µM (inactive) in the assay with A498; > 100 µM (inactive) with MCF7; > 100 µM (inactive) in the assay with MOLT-4; > 100 µM (inactive) in the assay with RXF 393.

Consider `COc1ccc2c(c1)/C(=C\c1cccc(/C=C3/C(=O)Nc4ccc(OC)cc43)n1)C(=O)N2`, for which the GI50 in the assay on SNB-75 is 19.1 µM (inactive); in the assay on SK-MEL-2 it was 3.01 µM (inactive); in the assay with SNB-19 it was 0.805 µM (active); in the assay with COLO 205, 0.33 µM (active); with 786-0, 0.964 µM (active); in the assay with HCC 2998 it was 0.933 µM (active). Further, the GI50 with CAKI-1 was 1.99 µM (inactive); with PC-3 it was 1.32 µM (inactive); in the assay with A549 it was 3.05 µM (inactive); in the assay with ACHN, 1.71 µM (inactive); in the assay with NCI/ADR-RES it was 8.85 µM (inactive); in the assay with OVCAR-3, 0.676 µM (active). Further, the GI50 in the assay on OVCAR-4 is 1.02 µM (active); in the assay on A498, 2.94 µM (inactive); with MCF7 it was 0.466 µM (active); in the assay with MOLT-4, 0.261 µM (active); in the assay on RXF 393, 0.942 µM (active).

For the origin of these results see ChEMBL document CHEMBL1201862, “PubChem BioAssay data set” (2004).
